SMILES strings stand for the structures. Where two headings read alike, the source gives them in different places.

The values below come from patent publication US20230203029A1 (priority 2020, published 2023).

In experiment [1] the target is T1, recombinant human AXL expressed in live cells (HEK, AXL-Nanoluc fusion vector) (Homo sapiens, UniProt P30530).
T1 construct: host or cells: HEK
T1 sequence (P30530 26-894): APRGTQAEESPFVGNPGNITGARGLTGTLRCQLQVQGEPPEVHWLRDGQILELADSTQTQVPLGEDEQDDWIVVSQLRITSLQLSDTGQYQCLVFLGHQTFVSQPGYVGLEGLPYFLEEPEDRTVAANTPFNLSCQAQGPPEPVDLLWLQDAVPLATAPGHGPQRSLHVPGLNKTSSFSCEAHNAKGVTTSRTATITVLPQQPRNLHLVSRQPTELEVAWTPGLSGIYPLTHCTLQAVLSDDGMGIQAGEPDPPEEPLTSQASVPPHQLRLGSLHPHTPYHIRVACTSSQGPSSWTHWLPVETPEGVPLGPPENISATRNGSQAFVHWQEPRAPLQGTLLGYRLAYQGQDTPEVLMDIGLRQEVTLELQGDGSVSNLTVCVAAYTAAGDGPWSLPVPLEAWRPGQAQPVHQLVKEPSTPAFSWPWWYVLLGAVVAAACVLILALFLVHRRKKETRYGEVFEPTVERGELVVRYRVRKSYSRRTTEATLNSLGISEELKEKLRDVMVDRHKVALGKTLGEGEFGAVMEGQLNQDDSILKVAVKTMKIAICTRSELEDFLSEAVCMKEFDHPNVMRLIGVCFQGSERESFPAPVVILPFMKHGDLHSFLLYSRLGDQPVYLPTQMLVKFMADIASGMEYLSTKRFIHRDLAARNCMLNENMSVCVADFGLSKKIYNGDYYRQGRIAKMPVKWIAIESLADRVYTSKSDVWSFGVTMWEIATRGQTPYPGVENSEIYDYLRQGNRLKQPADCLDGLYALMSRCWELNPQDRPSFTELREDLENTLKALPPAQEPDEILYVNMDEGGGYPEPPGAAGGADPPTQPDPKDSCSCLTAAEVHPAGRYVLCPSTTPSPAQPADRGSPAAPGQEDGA
Put plainly: Assay 3 AXL cellular target engagement (NanoBRET TE) assay. The experiment is classed as cell-based. Here is the method:
Assay 3—AXL Cellular Target Engagement (TE) Assay
Compound affinities for recombinant human AXL expressed in live cells were assessed via the Promega NanoBRET TE assay technology. Human Embryonic Kidney (HEK) cells were transiently transfected with the AXL-Nanoluc fusion vector (Promega Cat NV1071) using Fugene HD reagent (Promega E2311). […] Incubations were conducted for 2 h at 37° C., after which 20 μl NanoGlo substrate/inhibitor mix (Promega N2161) was added to each well for 2-3 min. The plate was then read on a BMG Pherastar FSX using a NanoBRET filter to record donor emission at 450 nm and acceptor fluorophore emission at 610 nm. From this the BRET ratio (acceptor 610 nm/donor 450 nm) for each data point was calculated.
(In general: In BRET a luciferase serves as donor, and the signal depends on an acceptor being close.)

The target in experiment [2] is T2, Ba/F3 Pro B-cell line expressing TEL-human MERTK fusion domain (Homo sapiens, UniProt Q12866).
T2 sequence (Q12866 587-858 limits assumed): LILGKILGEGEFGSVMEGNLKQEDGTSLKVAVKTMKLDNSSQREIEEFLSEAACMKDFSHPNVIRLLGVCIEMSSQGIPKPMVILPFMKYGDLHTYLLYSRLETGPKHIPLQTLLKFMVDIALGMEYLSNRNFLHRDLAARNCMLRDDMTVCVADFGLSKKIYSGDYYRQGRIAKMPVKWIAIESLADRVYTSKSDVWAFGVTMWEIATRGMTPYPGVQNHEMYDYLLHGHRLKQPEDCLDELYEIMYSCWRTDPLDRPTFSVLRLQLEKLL
The experiment is classed as cell-based. Put shortly:
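Ba/F3 cells dependent on BCR-AXL or TEL-MERTK fusion kinase (IL3-free; IL3 only for control lines) treated with compound 48 h at 37 °C, 0.25% DMSO. Viability by CellTiter-Glo luminescence; IC50 for half-maximal inhibition of survival from 4-parameter variable-slope fit.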

Setting [3] is: cell survival, 48 h, CellTiter-Glo; read-out: TEL-MERTK Ba/F3 IC50.

For the compound `CN1CCC(NC(=O)c2cc3c(Nc4ccc(NC(=O)c5cccn(-c6ccccc6)c5=O)cc4)ccnc3cn2)CC1` [Example 3, N-(1-methyl-4-piperidyl)-4-[4-[(2-oxo-1-phenyl-pyridine-3-carbonyl)amino]anilino]-1,7-naphthyridine-6-carboxamide], the IC50 amounted to 7 nM in experiment [1] and 314 nM in experiment [2] (setting [3]).

Take `O=C(Nc1ccc(Oc2ccnc3cnc(N4CCNCC4)cc23)cc1)c1cccn(-c2ccc(F)cc2)c1=O` [Example 12.2, 1-(4-fluorophenyl)-2-oxo-N-[4-[(6-piperazin-1-yl-1,7-naphthyridin-4-yl)oxy]phenyl]pyridine-3-carboxamide]: the IC50 in experiment [1] was found to be 28.8 nM; in experiment [2] (setting [3]) it was 56 nM.

As to `CC(C)n1cc(C(=O)Nc2ccc(Oc3ccnc4cnc(N5CCNCC5)cc34)cc2)c(=O)n(-c2ccccn2)c1=O` [Example 12.3, 1-isopropyl-2,4-dioxo-N-[4-[(6-piperazin-1-yl-1,7-naphthyridin-4-yl)oxy]phenyl]-3-(2-pyridyl)pyrimidine-5-carboxamide], the IC50 in experiment [1] stood at 80.8 nM; in experiment [2] (setting [3]), 431 nM.

As to `CC(C)n1cc(C(=O)Nc2ccc(Oc3ccnc4cnc(N5CCNCC5)cc34)cc2)c(=O)n(-c2ccc(F)cn2)c1=O` [Example 12.4, 3-(5-fluoro-2-pyridyl)-1-isopropyl-2,4-dioxo-N-[4-[(6-piperazin-1-yl-1,7-naphthyridin-4-yl)oxy]phenyl]pyrimidine-5-carboxamide], the IC50 in experiment [1] is 12.8 nM; in experiment [2] (setting [3]) it was 100 nM.

As for `CC(C)n1cc(C(=O)Nc2ccc(Oc3ccnc4cnc(N5CCNCC5)cc34)cc2)c(=O)c(-c2ccc(F)cc2)c1` [Example 13, 5-(4-Fluorophenyl)-1-isopropyl-4-oxo-N-[4-[(6-piperazin-1-yl-1,7-naphthyridin-4-yl)oxy]phenyl]pyridine-3-carboxamide], the IC50 in experiment [1] was determined as 7.1 nM; in experiment [2] (setting [3]), 31 nM.

`Cn1cc(C(=O)Nc2ccc(Oc3ccnc4cnc(N5CCNCC5)cc34)cc2)c(=O)c(-c2ccc(F)cc2)c1` [Example 13.1, 5-(4-fluorophenyl)-1-methyl-4-oxo-N-[4-[(6-piperazin-1-yl-1,7-naphthyridin-4-yl)oxy]phenyl]pyridine-3-carboxamide]: the IC50 was 15.9 nM in experiment [1] and 50 nM in experiment [2] (setting [3]).

For `C[C@H](CO)n1cc(C(=O)Nc2ccc(Oc3ccnc4cnc(C(=O)NC5CCN(C)CC5)cc34)cc2)c(=O)n(-c2ccc(F)cc2)c1=O` [Example 14, 4-[4-[[3-(4-Fluorophenyl)-2,4-dioxo-1-[(1R)-2-hydroxy-1-methyl-ethyl]pyrimidine-5-carbonyl]amino]phenoxy]-N-(1-methyl-4-piperidyl)-1,7-naphthyridine-6-carboxamide], the IC50 in experiment [1] was 31 nM; in experiment [2] (setting [3]) it was 80 nM.

Turning to `CN1CCC(NC(=O)c2cc3c(Oc4ccc(NC(=O)c5cn(C6CC6)c(=O)n(-c6ccc(F)cc6)c5=O)cc4)ccnc3cn2)CC1` [Example 15, 4-[4-[[1-Cyclopropyl-3-(4-fluorophenyl)-2,4-dioxo-pyrimidine-5-carbonyl]amino]phenoxy]-N-(1-methyl-4-piperidyl)-1,7-naphthyridine-6-carboxamide], the IC50 in experiment [1] worked out at 33.2 nM; in experiment [2] (setting [3]) it was 159 nM.

On to `O=C(Nc1ccc(Oc2ccnc3cnc(N4CCN(C5COC5)CC4)cc23)cn1)c1ccnn(-c2ccc(F)cc2)c1=O` [Example 20, 2-(4-fluorophenyl)-N-[5-[[6-[4-(oxetan-3-yl)piperazin-1-yl]-1,7-naphthyridin-4-yl]oxy]-2-pyridyl]-3-oxo-pyridazine-4-carboxamide], for which, in experiment [2] (setting [3]), the IC50 came out at 20 nM.

Regarding `CC(C)n1cc(C(=O)Nc2ccc(Oc3ccnc4cnc(C(=O)NC5CCN(C)CC5)cc34)cn2)c(=O)n(-c2ccc(F)cc2)c1=O` [Example 27.5, 4-[[6-[[3-(4-fluorophenyl)-1-isopropyl-2,4-dioxo-pyrimidine-5-carbonyl]amino]-3-pyridyl]oxy]-N-(1-methyl-4-piperidyl)-1,7-naphthyridine-6-carboxamide], the IC50 was 14 nM in experiment [1] and 9 nM in experiment [2] (setting [3]).

Turning to `Cc1cc(NC(=O)c2cccn(-c3ccccc3)c2=O)ccc1Oc1ccnc2cnc(N3CCNCC3)cc12` [Example 30, N-[3-methyl-4-[(6-piperazin-1-yl-1,7-naphthyridin-4-yl)oxy]phenyl]-2-oxo-1-phenyl-pyridine-3-carboxamide], the IC50 in experiment [1] was 339 nM; in experiment [2] (read-out: TEL-MERTK Ba/F3 IC50; cell survival, 48 h, CellTiter-Glo), 466 nM.

Consider `CN1CCC(NC(=O)c2cc3c(Oc4ccc(NC(=O)c5cccn(-c6ccccc6)c5=O)cc4F)ccnc3cn2)CC1` [Example 33, 4-[2-fluoro-4-[(2-oxo-1-phenyl-pyridine-3-carbonyl)amino]phenoxy]-N-(1-methyl-4-piperidyl)-1,7-naphthyridine-6-carboxamide], for which the IC50 in experiment [1] was found to be 63.8 nM; in experiment [2] (setting [3]), 58 nM.

For the compound `O=C(Nc1ccc(Oc2ccnc3cnc(N4CCNCC4)cc23)cc1)c1cn(C2CC2)c(=O)n(-c2ccc(F)cc2)c1=O` [Example 36, 1-cyclopropyl-3-(4-fluorophenyl)-2,4-dioxo-N-[4-[(6-piperazin-1-yl-1,7-naphthyridin-4-yl)oxy]phenyl]pyrimidine-5-carboxamide], the IC50 in experiment [1] worked out at 25.7 nM; in experiment [2] (setting [3]), 160 nM.

On to `CN1CCC(NC(=O)c2cc3c(Oc4ccc(NC(=O)c5cn(C)cc(-c6ccc(F)cc6)c5=O)cc4)ccnc3cn2)CC1` [Example 37, 4-[4-[[5-(4-fluorophenyl)-1-methyl-4-oxo-pyridine-3-carbonyl]amino]phenoxy]-N-(1-methyl-4-piperidyl)-1,7-naphthyridine-6-carboxamide], for which the IC50 in experiment [1] was found to be 33.5 nM; in experiment [2] (setting [3]), 50 nM.

Turning to `CC(C)n1cc(C(=O)Nc2ccc(Oc3ccnc4cnc(C(=O)NC5CCN(C)CC5)cc34)cc2)c(=O)c(-c2ccc(F)cc2)c1` [Example 37.1, 4-[4-[[5-(4-fluorophenyl)-1-isopropyl-4-oxo-pyridine-3-carbonyl]amino]phenoxy]-N-(1-methyl-4-piperidyl)-1,7-naphthyridine-6-carboxamide], the IC50 in experiment [1] came out at 6.1 nM; in experiment [2] (setting [3]), 8 nM.
